This is an account of results in patent publication EP2140864A2 (H. Lundbeck A/S, priority 2001, dated 2002).

The assay deals with T1, human GAL3 receptor (Homo sapiens, UniProt O60755).
T1 construct: expressed in transfected cells
T1 sequence (O60755 1-368): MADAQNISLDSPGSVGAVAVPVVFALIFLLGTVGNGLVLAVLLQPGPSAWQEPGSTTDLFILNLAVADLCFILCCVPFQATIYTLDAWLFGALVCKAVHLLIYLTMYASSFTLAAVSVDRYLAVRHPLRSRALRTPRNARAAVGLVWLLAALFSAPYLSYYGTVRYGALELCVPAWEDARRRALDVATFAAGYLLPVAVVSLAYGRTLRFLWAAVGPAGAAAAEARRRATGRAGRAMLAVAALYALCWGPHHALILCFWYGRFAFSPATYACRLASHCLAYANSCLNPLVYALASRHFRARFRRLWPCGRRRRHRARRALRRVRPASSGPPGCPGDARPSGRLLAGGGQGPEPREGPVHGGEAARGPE
Description: Radioligand binding at cloned human GAL3 receptor. The following applies: pyrimidines, cloned human receptor; read-out: Ki GalR3. Here is the method: The present invention provides for a method of determining the binding affinity of a GAL3 antagonist, wherein the GAL3 antagonist is dissolved in a "suitable solvent". A "suitable solvent" means one which permits the measurement of binding affinity of the GAL3 antagonist to the human GAL3 receptor at concentrations less than 1 µM, preferably less than 100 nM. Examples of solvents include, but are not limited to, DMSO, ethanol, N,N-dimethylacetamide, or water. For indolones, the preferred solvent is 3% DMSO (final concentration in the assay). For pyrimidines, the preferred solvent is 1% ethanol/0.09% polypuronic acid F-127 (final concentration in the assay). For any other type of compounds, the preferred solvent is the solvent which permits the measurement of binding affinity of a GAL3 antagonist at the lowest concentration. Once a suitable solvent is ascertained for the binding assay of the human GAL3 receptor, the same solvent is used in assays to determine the binding affinity at the GAL1 receptor, the serotonin transporter, the norepinephrine transporter, and the dopamine transporter. A solvent of 0.4% DMSO is used in the central monoamine oxidase enzyme assay.
The binding properties of the pyrimidines of the present invention were evaluated at the cloned human galanin receptors, GAL1, GAL2, and GAL3, using protocols described herein.
The binding properties of the indolones of the present invention were evaluated at the cloned human galanin receptors, GAL1, GAL2, and GAL3, using protocols described herein.
LM(tk-) cells were stably transfected with the human GAL1 or GAL3 receptor. CHO cells were stably transfected with the human GAL2 receptor.
cDNAs for the human and rat GAL1, and human and rat GAL3 receptors were transfected with a G-418 resistant gene into the mouse fibroblast LM(tk-) cell line by a calcium phosphate transfection method (Cullen, 1987). Stably transfected cells were selected with G-418. Human and rat GAL2 receptors were similarly transfected into CHO cells.
Membranes were harvested from stably transfected LM(tk-) cells. Adherent cells were washed twice in ice-cold phosphate buffered saline (138 mM NaCl, 8.1 mM Na2HPO4, 2.5 mM KCl, 1.2 mM KH2PO4, 0.9 mM CaCl2, 0.5 mM MgCl2, pH 7.4) and lysed by sonication in ice-cold sonication buffer (20 mM Tris-HCl, 5 mM EDTA, pH 7.7). Large particles and debris were cleared by low speed centrifugation (200 x g, 5 min, 4°C). Membranes were collected from the supernatant fraction by centrifugation (32,000 x g, 18 min, 4°C), washed with ice-cold hypotonic buffer, and collected again by centrifugation (32,000 x g, 18 min, 4°C). The final membrane pellet was resuspended by sonication into a small volume of ice-cold binding buffer (-1 ml for every 5 plates: 10 mM NaCl, 20 mM HEPES, 0.22 mM KH2PO4, 1.26 mM CaCl2, 0.81 mM MgSO4, pH 7.4). Protein concentration was measured by the Bradford method (Bradford, 1976) using Bio-Rad Reagent, with bovine serum albumin as a standard. Membranes were held on ice for up to one hour and used fresh, or flash frozen and stored in liquid nitrogen. Membranes were prepared similarly from CHO cells.
Galanin Recentors: Binding assays were performed according to the following published methods: human GAL3 (PCT International Publication No. WO 98/15570), human GAL1 (PCT International Publication No. WO 95/2260), human GAL2 (PCT International Publication No. WO 97/26853).
Binding data were analyzed using nonlinear regression and statistical techniques available in the GraphPAD Prism package (San Diego, CA). Enzymatic assay data were derived from a standard curve of reference compound data.
Turning to `Cc1ccc(Nc2cc(N(C)C)nc(N3CCN(c4ccccn4)CC3)n2)cc1C` [Example 190], the Ki came to 153 nM.

As to `CC(C)c1cccc(Nc2cc(N(C)C)nc(N3CCN(c4ccccn4)CC3)n2)c1` [Example 191], the Ki was determined as 75 nM.

As to `CCCCCCCCc1ccc(Nc2cc(N(C)C)nc(N3CCN(c4ccccn4)CC3)n2)cc1` [Example 192], the Ki came out at 18 nM.

Turning to `CN(C)c1cc(Nc2cccc(I)c2)nc(N2CCN(c3ccccn3)CC2)n1` [Example 193], the Ki is 244 nM.

For `CN(C)c1cc(Nc2ccc(Cl)cc2)nc(N2CCN(c3ccccn3)CC2)n1` [Example 194], the Ki was determined as 248 nM.

For the compound `CN(C)c1cc(Nc2ccc(F)c(F)c2)nc(N2CCN(c3ccccn3)CC2)n1` [Example 196], the Ki was 443 nM.

Take `COc1cc(Nc2cc(N(C)C)nc(N3CCN(c4ccccn4)CC3)n2)cc(C(F)(F)F)c1` [Example 197]: the Ki stood at 666 nM.

With `CN(C)c1cc(Nc2ccc(F)c(F)c2F)nc(N2CCN(c3ccccn3)CC2)n1` [Example 198], the Ki amounted to 560 nM.

Regarding `CN(C)c1cc(Nc2ccc(Br)cc2F)nc(N2CCN(c3ccccn3)CC2)n1` [Example 199], the Ki stood at 199 nM.

Consider `Cc1cc(Nc2cc(N(C)C)nc(N3CCN(c4ccccn4)CC3)n2)ccc1F` [Example 200], for which the Ki came out at 311 nM.

As for `COc1ccc(OC)c(Nc2cc(N(C)C)nc(N3CCN(c4ccccn4)CC3)n2)c1` [Example 201], the Ki was found to be 566 nM.

As to `COc1cc(Nc2cc(N(C)C)nc(N3CCN(c4ccccn4)CC3)n2)cc(OC)c1` [Example 202], the Ki turned out to be 740 nM.

For the compound `CN(C)c1cc(Nc2cccc(OCc3ccccc3)c2)nc(N2CCN(c3cccc(Br)c3)CC2)n1` [Example 203], the Ki amounted to 52 nM.

As to `Cc1ccc(Nc2cc(N(C)C)nc(N3CCN(c4ccccn4)CC3)n2)c(Br)c1` [Example 204], the Ki turned out to be 269 nM.

In the case of `CN(C)c1cc(Nc2ccc(Cl)cc2Cl)nc(N2CCN(c3ccccn3)CC2)n1` [Example 205], the Ki turned out to be 193 nM.

As for `CN(C)c1cc(Nc2cccc(F)c2)nc(N2CCN(c3ccccn3)CC2)n1` [Example 206], the Ki turned out to be 454 nM.

Turning to `CN(C)c1cc(Nc2cccc(OC(F)(F)F)c2)nc(N2CCN(c3ccccn3)CC2)n1` [Example 207], the inhibition constant Ki worked out at 58 nM.

As to `CN(C)c1cc(Nc2cc(Cl)ccc2Cl)nc(N2CCN(c3ccccn3)CC2)n1` [Example 208], the Ki was determined as 120 nM.

Consider `CCCc1ccc(Nc2cc(N(C)C)nc(N3CCN(c4ccccn4)CC3)n2)cc1` [Example 209], for which the Ki came to 205 nM.

For `CCCCCc1ccc(Nc2cc(N(C)C)nc(N3CCN(c4ccccn4)CC3)n2)cc1` [Example 210], the Ki worked out at 58 nM.

For `CCC(C)c1ccc(Nc2cc(N(C)C)nc(N3CCN(c4ccccn4)CC3)n2)cc1` (stereo not drawn) [Example 211], the Ki was 58 nM.

As for `CN(C)c1cc(Nc2ccccc2C(C)(C)C)nc(N2CCN(c3ccccn3)CC2)n1` [Example 212], the Ki turned out to be 231 nM.

In the case of `Cc1ccc(C)c(Nc2cc(N(C)C)nc(N3CCN(c4ccccn4)CC3)n2)c1` [Example 213], the Ki is 165 nM.

As for `Cc1cc(C)cc(Nc2cc(N(C)C)nc(N3CCN(c4ccccn4)CC3)n2)c1` [Example 214], the Ki came to 676 nM.

As for `Cc1cccc(Nc2cc(N(C)C)nc(N3CCN(c4ccccn4)CC3)n2)c1C` [Example 215], the Ki came to 450 nM.

As to `CN(C)c1cc(Nc2cccc(Cc3ccccc3)c2)nc(N2CCN(c3ccccn3)CC2)n1` [Example 216], the Ki turned out to be 50 nM.

Regarding `CN(C)c1cc(Nc2ccc(Br)cc2Cl)nc(N2CCN(c3ccccn3)CC2)n1` [Example 217], the Ki is 190 nM.

With `CN(C)c1cc(Nc2cccc(Cl)c2Cl)nc(N2CCN(c3ccccn3)CC2)n1` [Example 218], the Ki turned out to be 616 nM.

For the compound `CN(C)c1cc(Nc2cc(F)c(F)cc2F)nc(N2CCN(c3ccccn3)CC2)n1` [Example 219], the Ki amounted to 558 nM.

Regarding `COc1ccc(Cl)cc1Nc1cc(N(C)C)nc(N2CCN(c3ccccn3)CC2)n1` [Example 220], the Ki is 708 nM.

Take `CN(C)c1cc(Nc2cc(F)c(F)c(F)c2)nc(N2CCN(c3ccccn3)CC2)n1` [Example 221]: the Ki was 213 nM.

In the case of `CN(C)c1cc(Nc2cc(F)ccc2Cl)nc(N2CCN(c3ccccn3)CC2)n1` [Example 222], the inhibition constant (Ki) turned out to be 847 nM.

Take `Cc1ccc(Nc2cc(N(C)C)nc(N3CCN(c4ccccn4)CC3)n2)c(Cl)c1` [Example 223]: the Ki came out at 559 nM.

Regarding `CN(C)c1cc(Nc2cccc(Cl)c2)nc(N2CCN(c3ccccn3)CC2)n1` [Example 224], the Ki stood at 218 nM.

`COc1cc(Nc2cc(N(C)C)nc(N3CCN(Cc4ccccc4)CC3)n2)cc(C(F)(F)F)c1` [Example 225]: the Ki was found to be 66 nM.

Take `COc1ccc(C(F)(F)F)cc1Nc1cc(N(C)C)nc(N2CCN(Cc3ccccc3)CC2)n1` [Example 226]: the Ki was 72 nM.

With `COc1ccc(OC)c(Nc2cc(N(C)C)nc(N3CCN(Cc4ccccc4)CC3)n2)c1` [Example 227], the Ki stood at 600 nM.

Take `CN(C)c1cc(Nc2cccc(OCc3ccccc3)c2)nc(N2CCN(Cc3ccccc3)CC2)n1` [Example 228]: the Ki came to 32 nM.

Regarding `CN(C)c1cc(Nc2ccc(C(F)(F)F)cc2)nc(N2CCN(Cc3ccccc3)CC2)n1` [Example 229], the Ki was found to be 37 nM.

With `CN(C)c1cc(Nc2ccc(Cl)c(Cl)c2Cl)nc(N2CCN(Cc3ccccc3)CC2)n1` [Example 230], the Ki is 52 nM.

In the case of `Cc1ccc(Nc2cc(N(C)C)nc(N3CCN(Cc4ccco4)CC3)n2)cc1` [Example 231], the Ki is 136 nM.

Take `COc1ccc(CCNc2nc(Nc3ccc(C)cc3)cc(N(C)C)n2)cc1` [Example 232]: the inhibition constant (Ki) came out at 155 nM.

For `COc1cccc(Nc2cc(N(C)C)nc(N3CCN(CC4CCCO4)CC3)n2)c1` (stereo not drawn) [Example 233], the Ki was 869 nM.

On to `COc1ccc(CN2CCN(c3nc(Nc4ccc(C)cc4)cc(N(C)C)n3)CC2)cc1` [Example 235], for which the Ki was 114 nM.

As for `Cc1ccc(Nc2cc(N(C)C)nc(NCCc3cccs3)n2)cc1` [Example 237], the Ki worked out at 404 nM.

Turning to `Cc1ccc(Nc2cc(N(C)C)nc(N3CCN(Cc4ccsc4)CC3)n2)cc1` [Example 238], the Ki stood at 331 nM.

On to `Cc1ccc(Nc2cc(N(C)C)nc(N3CCN(c4ccccn4)CC3)n2)cc1Br` [Example 240], for which the Ki was 77 nM.

As to `Cc1ccc(Nc2cc(N(C)C)nc(N3CCN(c4ncccc4C#N)CC3)n2)cc1` [Example 241], the Ki stood at 261 nM.

Consider `Cc1ccc(Nc2cc(N(C)C)nc(N3CCN(c4ccccn4)CC3)n2)cc1Nc1ccccn1` [Example 242], for which the inhibition constant (Ki) was found to be 166 nM.

For `CN(C)c1cc(Nc2cccc(Br)c2)nc(N2CCN(c3ccccn3)CC2)n1` [Example 243], the Ki worked out at 46 nM.

Take `CN(C)c1cc(Nc2ccc(C(F)(F)F)cc2Cl)nc(N2CCN(Cc3ccccc3)CC2)n1` [Example 244]: the Ki is 55 nM.

As for `COc1cccc(Nc2cc(N(C)C)nc(N3CCN(c4ccccn4)CC3)n2)c1` [Example 245], the Ki was 537 nM.

`COc1cccc(Nc2cc(N(C)C)nc(N3CCN(c4ccccc4C(F)(F)F)CC3)n2)c1` [Example 246]: the Ki was determined as 270 nM.

As for `COc1cccc(Nc2cc(N(C)C)nc(NCCc3ccccc3)n2)c1` [Example 247], the Ki was determined as 195 nM.
